Results as given in ChEMBL document CHEMBL5728816, “Thienopyridine inhibitors of RIPK2” (2021).

Molecular target: Receptor-interacting serine/threonine-protein kinase 2 (Homo sapiens, UniProt O43353)
Test: TR-FRET Assay: All data was collected using a standard TR-FRET screening assay: LanthaScreen Tracer 199 at 50 nM, Eu-anti-His Antibody at 2 nM, 5 nM RIPK2 enzyme, and 1× Kinase Reaction Buffer. There was a 1 hour incubation prior to read. TR-FRET signal of the interaction (340Ex/665Em/615Em) was read at room temperature with standard setting. Background was subtracted of wells containing no enzyme. Percent inhibition was based on uninhibited controls log (inhibitor) vs. response. Variable slope equation was used with no constraints: Log Y=Bottom+(Top−Bottom)/(1+10^((Log IC50−X)*Hill Slope)).Analytical Instrumentation:NMR: Bruker UltraShield™-300 or Bruker Ascend™-400 spectrometers.LCMS: Shimadzu LCMS-2020 or Agilent technologies 1260 Infinity-6120 Quadrupole LC/MS.Purification:TLC plates: Thin-layer chromatography with E. Merck silica gel 60 F254 pre-coated plates (0.25 mm).Flash chromatography: Agela Technologies CHEETAH-MP200 CH16200 2T-A0099 or Biotage Isolera ISO-PSV ISPS 1832112.

Receptor-interacting serine/threonine-protein kinase 2, sequence (O43353 whole entry): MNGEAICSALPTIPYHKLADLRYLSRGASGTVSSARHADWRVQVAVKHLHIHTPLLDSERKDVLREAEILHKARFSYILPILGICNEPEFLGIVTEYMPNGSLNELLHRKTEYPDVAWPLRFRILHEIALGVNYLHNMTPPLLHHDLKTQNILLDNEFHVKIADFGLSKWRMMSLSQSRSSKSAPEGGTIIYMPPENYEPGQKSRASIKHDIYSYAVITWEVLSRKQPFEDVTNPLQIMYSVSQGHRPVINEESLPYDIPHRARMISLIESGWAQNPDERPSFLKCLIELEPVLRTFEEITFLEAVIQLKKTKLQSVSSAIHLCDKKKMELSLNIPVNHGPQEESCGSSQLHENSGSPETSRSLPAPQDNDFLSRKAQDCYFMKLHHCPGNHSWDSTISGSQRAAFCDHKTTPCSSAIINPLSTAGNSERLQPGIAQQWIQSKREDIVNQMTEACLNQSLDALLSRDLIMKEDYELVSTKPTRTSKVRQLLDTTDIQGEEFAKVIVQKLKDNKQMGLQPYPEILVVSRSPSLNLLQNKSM

IC50: < 10 nM
SMILES: C[C@@H]1[C@H](c2cc3c(Nc4ccc5scnc5c4F)ccnc3s2)CCCN1C
